Test results: patent publication US9201014B2, “Development of photostable near-IR cyanine dyes for in vivo imaging” (National University of Singapore, priority 2010, dated 2015)

How the values were obtained:
[1] = Absorbance and fluorescence maximum wavelengths and quantum yields of the CyNA library; format: physicochemical; conditions: for λabs, absorbance maximum wavelength / λem, fluorescence maximum wavelength: CyNA library; for φ, quantum yield: in DMSO, Cardiogreen as standard
Experimental: Since the k values of the different CyNA compounds indicated some dependency on the chemical structure of the amine, the CyNA scaffold was derivatized with a broad range of primary amines (FIGS. 4A-4C). The fluorescence properties of the 80-member CyNA library were measured. The absorption maximum wavelengths ranged from 802 nm to 806 nm, emission maximum wavelengths ranged from 817 nm to 823 nm, and the average quantum yield was approximately 0.10 (Table 2).
All the chemicals (building block amines plus others) and solvents were purchased from Sigma Aldrich, Alfa Aesar, Fluka, MERCK or Acros, and used without further purification. ^1H-NMR and ^13C-NMR spectra were recorded on Bruker Avance 300 NMR and 500 NMR spectrometers, and chemical shifts are expressed in parts per million (ppm). High-resolution mass spectrometry (HRMS) data was recorded on a Micromass VG 7035. Photobleaching experiments were performed using a UVP Blak-Ray® B-100AP high intensity UV lamp (100 W, 365 nm) Spectroscopic and quantum yield data were measured on a SpectraMax M2 spectrophotometer (Molecular Devices), and the data analysis was performed using GraphPrism 5.0. Photobleaching measurements were performed using an Eclipse Ti-U Nikon microscope (filter cube: 750/800) attached to Ti:sappire oscillator that operated in continuous wave mode, and the data was processed using the software NIS-Elements 3.10. In vivo images were taken in an IVIS Spectrum imaging system (Caliper Life Sciences).

[2] = Primary screening of photostability of the CyNA library (time-course fluorescence, 8 h); format: physicochemical; design: F/Fo, fluorescent intensity at 8 hours vs 0 hours: unit: %; conditions: 10 μM in HEPES 100 mM pH 7.4, 2% DMSO
Experimental: As a primary evaluation of photo stability, the decrease in fluorescence intensity of the 80 CyNA compounds was measured (see Table 2). The average decrease in fluorescence intensity after 8 hours of irradiation by a xenon lamp was approximately 18%. A subset of the most photostable compounds (i.e., F/Fo reported in Table 2 was greater than or equal to 95) was examined under stronger irradiation in various buffers.
10-μM CyNA solutions in 100 mM HEPES buffer (pH 7.4) containing 2% DMSO were placed in a 96-well black plate, and fluorescence intensity measurements were recorded every 10 minutes for a total period of 8 hours (excitation-emission: 790-820 nm). A subset of fourteen compounds selected according to their F8h/Fo quotients, quantum yields and maximum relative fluorescence units (RFU) values was further evaluated in a secondary screening

| Structure (SMILES) | λabs, absorbance maximum wavelength [1] [nm] | λem, fluorescence maximum wavelength [1] [nm] | φ, quantum yield [1] | F/Fo, fluorescent intensity at 8 hours vs 0 hours [2] | max RFU, maximum relative fluorescence units [2] |
| --- | --- | --- | --- | --- | --- |
| CCCN1/C(=C/C=C2\CCCC(/C=C/C3=[N+](CCC)c4ccccc4C3(C)C)=C2N(Cc2cccc(F)c2F)C(C)=O)C(C)(C)c2ccccc21 [CyNA-351] | 805 | 818 | 0.10 | 52 | 555.4 |
| CCCN1/C(=C/C=C2\CCCC(/C=C/C3=[N+](CCC)c4ccccc4C3(C)C)=C2N(Cc2cc(OC)c(OC)c(OC)c2)C(C)=O)C(C)(C)c2ccccc21 [CyNA-356] | 804 | 820 | 0.12 | 83 | 892.3 |
| CCCN1/C(=C/C=C2\CCCC(/C=C/C3=[N+](CCC)c4ccccc4C3(C)C)=C2N(Cc2ccc(OC)cc2OC)C(C)=O)C(C)(C)c2ccccc21 [CyNA-358] | 805 | 819 | 0.14 | 100 | 487.4 |
| CCCN1/C(=C/C=C2\CCCC(/C=C/C3=[N+](CCC)c4ccccc4C3(C)C)=C2N(CCc2ccc([N+](=O)[O-])cc2)C(C)=O)C(C)(C)c2ccccc21 [CyNA-359] | 805 | 821 | 0.11 | 85 | 527.6 |
| CCCN1/C(=C/C=C2\CCCC(/C=C/C3=[N+](CCC)c4ccccc4C3(C)C)=C2N(Cc2ccccc2Cl)C(C)=O)C(C)(C)c2ccccc21 [CyNA-364] | 804 | 821 | 0.05 | 98 | 264.8 |
| CCCCN(C(C)=O)C1=C(/C=C/C2=[N+](CCC)c3ccccc3C2(C)C)CCC/C1=C\C=C1\N(CCC)c2ccccc2C1(C)C [CyNA-373] | 805 | 820 | 0.07 | 76 | 567.2 |
| CCCN1/C(=C/C=C2\CCCC(/C=C/C3=[N+](CCC)c4ccccc4C3(C)C)=C2N(Cc2ccccc2F)C(C)=O)C(C)(C)c2ccccc21 [CyNA-375] | 804 | 821 | 0.07 | 98 | 533.7 |
| CCCN1/C(=C/C=C2\CCCC(/C=C/C3=[N+](CCC)c4ccccc4C3(C)C)=C2N(CC2CCCCC2)C(C)=O)C(C)(C)c2ccccc21 [CyNA-382] | 804 | 820 | 0.08 | 85 | 294.6 |
| CCCN1/C(=C/C=C2\CCCC(/C=C/C3=[N+](CCC)c4ccccc4C3(C)C)=C2N(Cc2cccc(OC)c2)C(C)=O)C(C)(C)c2ccccc21 [CyNA-387] | 804 | 820 | 0.07 | 75 | 739.9 |
| CCCN1/C(=C/C=C2\CCCC(/C=C/C3=[N+](CCC)c4ccccc4C3(C)C)=C2N(Cc2ccccc2OC)C(C)=O)C(C)(C)c2ccccc21 [CyNA-388] | 803 | 819 | 0.14 | 97 | 1398.5 |
| CCCN1/C(=C/C=C2\CCCC(/C=C/C3=[N+](CCC)c4ccccc4C3(C)C)=C2N(CCc2ccc(OC)cc2)C(C)=O)C(C)(C)c2ccccc21 [CyNA-395] | 804 | 820 | 0.07 | 95 | 234.3 |
| CCCN1/C(=C/C=C2\CCCC(/C=C/C3=[N+](CCC)c4ccccc4C3(C)C)=C2N(Cc2ccc(C)cc2)C(C)=O)C(C)(C)c2ccccc21 [CyNA-396] | 804 | 820 | 0.09 | 96 | 736.1 |
| CCCN1/C(=C/C=C2\CCCC(/C=C/C3=[N+](CCC)c4ccccc4C3(C)C)=C2N(Cc2cccc(C)c2)C(C)=O)C(C)(C)c2ccccc21 [CyNA-398] | 804 | 819 | 0.07 | 99 | 540.2 |
| CCCN1/C(=C/C=C2\CCCC(/C=C/C3=[N+](CCC)c4ccccc4C3(C)C)=C2N(Cc2ccc(F)cc2F)C(C)=O)C(C)(C)c2ccccc21 [CyNA-399] | 804 | 819 | 0.10 | 95 | 775.5 |
| CCCN1/C(=C/C=C2\CCCC(/C=C/C3=[N+](CCC)c4ccccc4C3(C)C)=C2N(Cc2ccccn2)C(C)=O)C(C)(C)c2ccccc21 [CyNA-401] | 805 | 820 | 0.10 | 91 | 856.5 |
| CCCN1/C(=C/C=C2\CCCC(/C=C/C3=[N+](CCC)c4ccccc4C3(C)C)=C2N(Cc2cccc(Cl)c2)C(C)=O)C(C)(C)c2ccccc21 [CyNA-403] | 805 | 819 | 0.05 | 45 | 261.6 |
| CCCN1/C(=C/C=C2\CCCC(/C=C/C3=[N+](CCC)c4ccccc4C3(C)C)=C2N(CCc2cccc(F)c2)C(C)=O)C(C)(C)c2ccccc21 [CyNA-405] | 806 | 820 | 0.06 | 83 | 138.5 |
| CCCCCCCCCCN(C(C)=O)C1=C(/C=C/C2=[N+](CCC)c3ccccc3C2(C)C)CCC/C1=C\C=C1\N(CCC)c2ccccc2C1(C)C [CyNA-407] | 805 | 820 | 0.08 | – | 22.5 |
| CCCCCN(C(C)=O)C1=C(/C=C/C2=[N+](CCC)c3ccccc3C2(C)C)CCC/C1=C\C=C1\N(CCC)c2ccccc2C1(C)C [CyNA-419] | 804 | 820 | 0.13 | 91 | 835.2 |
| CCCN1/C(=C/C=C2\CCCC(/C=C/C3=[N+](CCC)c4ccccc4C3(C)C)=C2N(CCCN(C)C)C(C)=O)C(C)(C)c2ccccc21 [CyNA-427] | 805 | 821 | 0.14 | 100 | 1247.4 |
| CCCN1/C(=C/C=C2\CCCC(/C=C/C3=[N+](CCC)c4ccccc4C3(C)C)=C2N(CCC(C)C)C(C)=O)C(C)(C)c2ccccc21 [CyNA-442] | 806 | 822 | 0.07 | 54 | 424.2 |
| CCCN1/C(=C/C=C2\CCCC(/C=C/C3=[N+](CCC)c4ccccc4C3(C)C)=C2N(Cc2ccco2)C(C)=O)C(C)(C)c2ccccc21 [CyNA-446] | 804 | 821 | 0.08 | 85 | 709.2 |
| CCCN1/C(=C/C=C2\CCCC(/C=C/C3=[N+](CCC)c4ccccc4C3(C)C)=C2N(CCc2ccccc2F)C(C)=O)C(C)(C)c2ccccc21 [CyNA-477] | 805 | 819 | 0.09 | – | 169.8 |
| CCCN1/C(=C/C=C2\CCCC(/C=C/C3=[N+](CCC)c4ccccc4C3(C)C)=C2N(CCc2ccc(C)cc2)C(C)=O)C(C)(C)c2ccccc21.[I-] [CyNA-478] | 805 | 821 | 0.09 | 64 | 121.6 |
